Results reported in patent US20240417406A1, “NITROGEN-CONTAINING TRICYCLIC COMPOUND AND PHARMACEUTICAL USE THEREOF” (JAPAN TOBACCO INC., priority 2021, published 2024).

molecular target: human PDHK2 (hPDHK2) (Homo sapiens (Human), UniProt Q15119); assay: Inhibitory action of PDHK2 activity (PDH/hPDHK2 complex, residual PDH activity by NADH absorbance at 340 nm); format: biochemical; details: FLAG-tagged recombinant hPDHK2 with porcine heart PDH complex; PDHK reaction 45 min at room temperature
Method: In the case of human PDHK2 (hPDHK2, NCBI Reference Database Accession number NM_002611.4), modified hPDHK2 cDNA wherein FLAG-Tag sequence was added to the N terminal of hPDHK2 cDNA clone (pReceiver-M01/PDK2-GeneCopoeia) as the base was prepared by polymerase chain reaction (PCR) and ligated to the NdeI/EcoRI site of pET-17b vector (Merck KGaA, Catalog Number 69663-3). The recombinant construct was transformed into Escherichia coli DH5a. The recombinant clones were identified, and plasmid DNA was isolated and subjected to the DNA sequence analysis. One clone which had the expected nucleic acid sequence was selected for expression work.
For expression of hPDHK2 activity, Escherichia coli strain BL21(DE3) cells (Merck KGaA, Catalog Number 69450-4) were transformed with the pET17b vector containing modified hPDHK2 cDNA. The Escherichia coli were grown to an optical density 0.6 ([…]) at 30° C. Protein expression was induced by the addition of 500 μmol/L isopropyl-β-thiogalactopyranoside. The Escherichia coli were cultured at 20° C. for 17 to for 18 hr and harvested by centrifugation. The harvested Escherichia coli was resuspended in a suspension buffer (20 mmol/L HEPES-NaOH, 500 mmol/L sodium chloride, 1% ethylene glycol, 0.1% Pluronic (registered trademark) F-68 (pH 8.0), cOmplete, EDTA-free (Roche) (pH 8.0)), and disrupted by a microfluidizer M-110H (MIZUHO INDUSTRIAL CO., LTD.). The precipitate was removed by centrifugation and the supernatant was added to DDDDK-tagged Protein PURIFICATION GEL (MEDICAL & BIOLOGICAL LABORATORIES CO., LTD., Code No. 3329). DDDDK-tagged Protein PURIFICATION GEL was washed with a washing buffer (20 mmol/L HEPES-NaOH, 500 mmol/L sodium chloride, 1% ethylene glycol, 0.1% Pluronic F-68 (pH 8.0)) and the bound protein was eluted with elution buffer 1 (20 mmol/L HEPES-NaOH, 100 μg/mL peptide (amino acid sequence DYKDDDDK) (SEQ ID NO: 1), 500 mmol/L sodium chloride, 1% ethylene glycol, 0.1% Pluronic F-68 (pH 8.0)). The eluted fractions containing FLAG-Tagged protein were pooled, concentrated by an ultrafiltration method, added to a gel filtration column (HiLoad 26/60 Superdex 200 (GE Healthcare Life Sciences, Code No. 17-1070-01)), and eluted with elution buffer 2 (20 mmol/L HEPES-NaOH, 150 mmol/L sodium chloride, 0.5 mmol/L ethylenediaminetetraacetic acid (EDTA), 1% ethylene glycol, 0.1% Pluronic F-68 (pH 8.0)). The eluted fractions were pooled and preserved at −80° C.
PDH (porcine heart PDH complex, Sigma P7032) and 0.5 μg/mL hPDHK2 were mixed in an assay buffer (50 mmol/L 3-morpholinopropanesulfonic acid (pH 7.0), 20 mmol/L dipotassium hydrogen phosphate, 60 mmol/L potassium chloride, 2 mmol/L magnesium chloride, 0.4 mmol/L EDTA, 0.2% poloxamer, 2 mmol/L dithiothreitol) so that the final concentration of PDH was 0.025 U/mL, and the mixture was incubated at 4° C. overnight to obtain a PDH/hPDHK2 complex solution.
PDH was mixed with the assay buffer so that the final concentration was 0.025 U/mL, and the mixture was incubated at 4° C. overnight to prepare a PDH solution.
The test compounds were diluted with DMSO. […] DMSO (1.5 μL) was added to control wells instead of test compound. In addition, DMSO (1.5 μL) was added to blank wells instead of the test compound, and PDH solution was added instead of the PDH/hPDHK2 complex solution. To measure an inhibitory action of the test compound on the PDHK activity inherent in the PDH solution, a test compound was added and the PDH solution instead of the PDH/hPDHK2 complex solution was added to a blank+test compound well.
Then, 10 μL of substrates (5 mmol/L sodium pyruvate, 5 mmol/L Coenzyme A, 12 mmol/L NAD, 5 mmol/L thiamine pyrophosphate, diluted with assay buffer) were added. The mixture was incubated at room temperature for 90 min, and the residual PDH activity was measured.
The absorbance of each well at 340 nm was measured using a microplate reader to detect NADH produced by the PDH reaction. […]

Row | IC50 [nM] | SMILES
1 | 18.4 | C[C@H]1Cn2nc(N3CCOCC3)cc2-c2cnc([C@@](C)(O)C(F)(F)F)n21 [Example 74]
2 | 7.2 | C[C@H]1Cc2nn([C@H]3C[C@](C)(C#N)C3)cc2-c2onc([C@@](C)(O)C(F)(F)F)c21 (racemic) [Example 54, (1S,3r)-1-methyl-3-((S)-4-methyl-3-((R)-1,1,1-trifluoro-2-hydroxypropan-2-yl)-4,5-dihydro-7H-isoxazolo[5,4-e]indazol-7-yl)cyclobutane-1-carbonitrile and enantiomer thereof]
3 | 12.3 | C[C@H]1Cn2nc(C34CC(C#N)(C3)C4)cc2-c2cnc([C@@](C)(O)C(F)(F)F)n21 [Example 72]
4 | 18 | C[C@H]1Cn2nc(C34CCC(CO)(CC3)CC4)cc2-c2cnc([C@@](C)(O)C(F)(F)F)n21 [Example 69]
5 | 19.2 | C[C@H]1Cn2nc(OCC#N)cc2-c2onc([C@@](C)(O)C(F)(F)F)c21 (racemic) [Example 42]
6 | 25.8 | C[C@H]1Cn2nc(O[C@H]3C[C@](C)(C#N)C3)cc2-c2onc([C@@](C)(O)C(F)(F)F)c21 (racemic) [Example 47]
7 | 30.5 | C[C@H]1Cn2nc(OCC34CCC(C#N)(CC3)C4)cc2-c2cnc([C@@](C)(O)C(F)(F)F)n21 [Example 90]
8 | 8.8 | C[C@H]1Cn2nc(OCC34CC(C#N)(C3)C4)cc2-c2cnc([C@@](C)(O)C(F)(F)F)n21 [Example 97, 3-((((S)-5-methyl-3-((R)-1,1,1-trifluoro-2-hydroxypropan-2-yl)-5,6-dihydroimidazo[1,5-a]pyrazolo[5,1-c]pyrazin-9-yl)oxy)methyl)bicyclo[1.1.1]pentane-1-carbonitrile]
9 | 10 | C[C@H]1Cc2nn([C@H]3CC[C@](C)(O)CC3)cc2-c2onc([C@@](C)(O)C(F)(F)F)c21 [Example 105, (1S,4r)-1-methyl-4-((S)-4-methyl-3-((R)-1,1,1-trifluoro-2-hydroxypropan-2-yl)-4,5-dihydro-7H-isoxazolo[5,4-e]indazol-7-yl)cyclohexan-1-ol]
10 | 49.5 | C[C@H]1Cn2nc(C34CCC(CO)(CC3)CO4)cc2-c2cnc([C@@](C)(O)C(F)(F)F)n21 [Example 94]
11 | 31.5 | C[C@H]1Cc2nn(C3CC(C#N)C3)cc2-c2onc([C@@](C)(O)C(F)(F)F)c21 (stereo in doubt) [Example 27]
12 | 14.5 | C[C@H]1Cc2c(cnn2CC#N)-c2onc([C@@](C)(O)C(F)(F)F)c21 (racemic) [Example 50]
13 | 10.6 | C[C@H]1Cn2c(nnc2C2CC2)-c2onc([C@@](C)(O)C(F)(F)F)c21 [Example 5]
14 | 11.7 | C[C@H]1Cn2c(nnc2C2(F)CC2)-c2onc([C@@](C)(O)C(F)(F)F)c21 [Example 8]
15 | 14.4 | C[C@H]1Cn2nc(OCC(C)(C)O)cc2-c2onc([C@@](C)(O)C(F)(F)F)c21 (racemic) [Example 14]
16 | 19.2 | C[C@H]1Cn2c(nnc2C2(C(F)(F)F)CC2)-c2onc([C@@](C)(O)C(F)(F)F)c21 [Example 2]

Row | IC50 [nM] | SMILES
17 | 29.2 | C[C@H]1Cn2nc(C3(F)CC3)cc2-c2cnnc([C@@](C)(O)C(F)(F)F)c21 (racemic) [Example 101, (R)-1,1,1-trifluoro-2-[(R)-9-(1-fluorocyclopropyl)-5-methyl-5,6-dihydropyrazolo[1′,5′:1,2]pyrido[3,4-d]pyridazin-4-yl]propan-2-ol and (S)-1,1,1-trifluoro-2-[(S)-9-(1-fluorocyclopropyl)-5-methyl-5,6-dihydropyrazolo[1′,5′:1,2]pyrido[3,4-d]pyridazin-4-yl]propan-2-ol]
18 | 14.5 | C[C@H]1Cn2nc(C34CC(C(C)(C)O)(C3)C4)cc2-c2cnc([C@@](C)(O)C(F)(F)F)n21 [Example 76]
19 | 8.5 | C[C@H]1Cc2[nH]ncc2-c2onc([C@@](C)(O)C(F)(F)F)c21 [Example 28, (R)-1,1,1-trifluoro-2-((S)-4-methyl-5,6-dihydro-4H-isoxazolo[5,4-e]indazol-3-yl)propan-2-ol]
20 | 15 | C[C@H]1Cn2nc(C3CCOCC3)cc2-c2onc([C@@](C)(O)C(F)(F)F)c21 (racemic) [Example 52]
21 | 13.7 | C[C@H]1Cn2nc(OCCF)cc2-c2cnc([C@@](C)(O)C(F)(F)F)n21 [Example 66]
22 | 17.2 | C[C@H]1Cn2nc(O[C@H]3CC[C@](C)(O)CC3)cc2-c2onc([C@@](C)(O)C(F)(F)F)c21 (racemic) [Example 37]
23 | 15.9 | C[C@H]1Cn2nc(OCC3COC3)cc2-c2onc([C@@](C)(O)C(F)(F)F)c21 (racemic) [Example 46]
24 | 11 | C[C@H]1Cn2nc(C34CCC(CO)(CC3)C4)cc2-c2cnc([C@@](C)(O)C(F)(F)F)n21 [Example 87]
25 | 23.3 | C[C@H]1Cn2nc(C34CCC(C#N)(C3)C4)cc2-c2cnc([C@@](C)(O)C(F)(F)F)n21 [Example 91, 4-((S)-5-methyl-3-((R)-1,1,1-trifluoro-2-hydroxypropan-2-yl)-5,6-dihydroimidazo[1,5-a]pyrazolo[5,1-c]pyrazin-9-yl)bicyclo[2.1.1]hexane-1-carbonitrile]
26 | 36.9 | C[C@H]1Cn2nc(C34CC(C#N)(C3)C4)cc2-c2cnnc([C@@](C)(O)C(F)(F)F)c21 (racemic) [Example 104, 3-[(R)-5-methyl-4-((R)-1,1,1-trifluoro-2-hydroxypropan-2-yl)-5,6-dihydropyrazolo[1′,5′:1,2]pyrido[3,4-d]pyridazin-9-yl]bicyclo[1.1.1]pentane-1-carbonitrile and 3-[(S)-5-methyl-4-((S)-1,1,1-trifluoro-2-hydroxypropan-2-yl)-5,6-dihydropyrazolo[1′,5′:1,2]pyrido[3,4-d]pyridazin-9-yl]bicyclo[1.1.1]pentane-1-carbonitrile]
27 | 20.1 | C[C@H]1Cc2nn(CCC#N)cc2-c2onc([C@@](C)(O)C(F)(F)F)c21 (racemic) [Example 32]
28 | 14.7 | C[C@H]1Cn2nc(OCCC(C)(C)O)cc2-c2onc([C@@](C)(O)C(F)(F)F)c21 (racemic) [Example 34]
29 | 18.2 | C[C@H]1Cc2c(cnn2C2CC(C#N)C2)-c2onc([C@@](C)(O)C(F)(F)F)c21 (stereo in doubt) [Example 26]
30 | 18.3 | C[C@H]1Cn2nc(OCF)cc2-c2onc([C@@](C)(O)C(F)(F)F)c21 (racemic) [Example 44]
31 | > 100 | COC(=O)C12CCC(c3cc4n(n3)C[C@H](C)c3c-4cnnc3[C@@](C)(O)C(F)(F)F)(CC1)CC2 (racemic) [Example 102, methyl 4-[(R)-5-methyl-4-((R)-1,1,1-trifluoro-2-hydroxypropan-2-yl)-5,6-dihydropyrazolo[1′,5′:1,2]pyrido[3,4-d]pyridazin-9-yl]bicyclo[2.2.2]octane-1-carboxylate and methyl 4-[(S)-5-methyl-4-((S)-1,1,1-trifluoro-2-hydroxypropan-2-yl)-5,6-dihydropyrazolo[1′,5′:1,2]pyrido[3,4-d]pyridazin-9-yl]bicyclo[2.2.2]octane-1-carboxylate]

Row | SMILES | IC50 [nM]
32 | COCCOc1cc2n(n1)C[C@@H](C)c1c([C@](C)(O)C(F)(F)F)noc1-2 [Example 43] | 28.2
33 | C[C@@H]1Cc2nn(CC#N)cc2-c2onc([C@](C)(O)C(F)(F)F)c21 [Example 49] | 19.5

same assay, conditions: at 100.0 nM, given when the IC50 value could not be calculated; read-out: hPDHK2 inhibitory rate

Row | inhibition at 0.1 µM [%] | SMILES
34 | 3 | COC(=O)C12CCC(c3cc4n(n3)C[C@H](C)c3c-4cnnc3[C@@](C)(O)C(F)(F)F)(CC1)CC2 (racemic) [Example 102, methyl 4-[(R)-5-methyl-4-((R)-1,1,1-trifluoro-2-hydroxypropan-2-yl)-5,6-dihydropyrazolo[1′,5′:1,2]pyrido[3,4-d]pyridazin-9-yl]bicyclo[2.2.2]octane-1-carboxylate and methyl 4-[(S)-5-methyl-4-((S)-1,1,1-trifluoro-2-hydroxypropan-2-yl)-5,6-dihydropyrazolo[1′,5′:1,2]pyrido[3,4-d]pyridazin-9-yl]bicyclo[2.2.2]octane-1-carboxylate]
